Experimental data from patent US11999806B2, “Broad-spectrum polypeptide against enterovirus and application thereof” (WUHAN INSTITUTE OF VIROLOGY, CHINESE ACADEMY OF SCIENCES, priority 2018, dated 2024).
“And” between values parts separate entries of the source, which are not always exact repeats. Identical values can stand only once. No end group written: not given here.

Columns and labels:
[1] = Cytotoxicity by CCK-8 in RD cells; assay type: cell-based; details: human; for CC50 at 24 h: Table 1 summary, cell line not given, read-out: CC50
Protocol: (§1) The experiment was performed as follows. • (1) RD cells were plated in a 96-well plate at 100 μl per well. • (2) After the cells reached 70%-80% confluence, the MEM medium containing 10% serum was replaced with a MEM medium containing 2% serum. Then, polypeptide P2 was added to generate gradient concentrations of 0.01 μM, 0.1 μM, 1 μM, 10 μM, and 100 μM (final concentration), respectively. • (3) The test was performed 24 hours after the addition of the polypeptide, and 10 μl of viable cell detection reagent CCK-8 was added to each well and mixed well. • (4) The plate was incubated at 37° C. for 2 h. • (5) The absorbance value at OD450 was measured with a microplate reader.
as §1, with “P1” for “P2”, “concentrations),” for “concentration),”
(§2) RD cells were used to test the antiviral effect of polypeptide P1. When RD cells reached 80% confluence, polypeptide P1 was added at concentrations of 0 μM (control group), 0.01 μM, 0.1 μM, 1 μM, 10 μM, and 100 μM, respectively. Three parallel wells were used for each concentration. The test was carried out 24 hours later, and the cell viability was detected using the CCK-8 kit.
as §1, with “3A-TAT-EP” for “P2”, “concentrations),” for “concentration),”
as §2, with “3A-TAT-EP.” for “P1.”, “3A-TAT-EP” for “P1”
as §1, with “Then, 3A-EP-DRI or 3A-EP-PEG4-PA” for “Then, polypeptide P2”, “and 50” for “and 100”, “(final concentrations),” for “(final concentration),”
as §2, with “polypeptides 3A-EP-DRI and 3A-EP-PEG4-PA.” for “polypeptide P1.”, “3A-EP-DRI or 3A-EP-PEG4-PA” for “P1”, “50” for “100”, “kit. […]” for “kit.”

[2] = system: RD cells; test: Cytotoxicity by CCK-8 in RD cells; assay type: cell-based; details: RD cells; for Cell viability (%): 24 h, CCK-8 4 h (Example 18); for cytotoxicity, result in words: CCK-8, 24 h
Protocol: as §1
as §1, with “P1” for “P2”, “concentrations),” for “concentration),”
as §2
as §1, with “3A-TAT-EP” for “P2”, “concentrations),” for “concentration),”
as §2, with “3A-TAT-EP.” for “P1.”, “3A-TAT-EP” for “P1”
as §1, with “Then, 3A-EP-DRI or 3A-EP-PEG4-PA” for “Then, polypeptide P2”, “and 50” for “and 100”, “(final concentrations),” for “(final concentration),”
as §2, with “polypeptides 3A-EP-DRI and 3A-EP-PEG4-PA.” for “polypeptide P1.”, “3A-EP-DRI or 3A-EP-PEG4-PA” for “P1”, “50” for “100”, “kit. […]” for “kit.”

[3] = Cytotoxicity by CCK-8 in Vero cells; assay type: cell-based; details: 24 h, read-out: Cell viability (%)
Protocol: (§3) The experiment was performed as follows. • (1) Vero cells were plated in a 96-well plate at 100 μl per well. • (2) After the cells reached 70%-80% confluence, the MEM medium containing 10% serum was replaced with a MEM medium containing 2% serum. Then, polypeptide BP8, BP10 or BP15 was added to generate gradient concentrations of […], […], 12.5 μM, 25 μM, 50 μM, 100 μM, and 200 μM (final concentrations), respectively. • (3) The samples were collected 24 hours after the addition of the polypeptide, and 10 μl of live cell detection reagent CCK-8 was added to each well and mixed well. • (4) The plate was placed at 37° C. for 4 h. • (5) The absorbance value at OD450 was measured with a microplate reader.

[4] = system: Vero cells; test: Cytotoxicity by CCK-8 in Vero cells; assay type: cell-based; details: for Cell viability (%): 24 h; for cytotoxicity, result in words: CCK-8, 24 h
Protocol: as §3

[5] = system: CVB5; test: Anti-CVB5 effect in RD cells, qRT-PCR; assay type: cell-based, Coxsackievirus B5; details: Example 20, read-out: IC50 against CVB5
Protocol: • (1) […] were plated in a 24-well cell plate. • (2) After the cells reached 70%-80% confluence, the MEM medium containing 10% serum was replaced with a MEM medium containing 2% serum (0.5 ml/well).

[6] = RD cells, 24 h, CCK-8 4 h (Example 18), read-out: Cell viability (%)

Row | Molecule | viability at 24 h, 3.0625 µM [1, 6] [%] | viability at 24 h, 6.125 µM [1, 6] [%] | viability at 24 h, 12.5 µM [1, 6] [%] | viability at 24 h, 25 µM [1, 6] [%] | viability at 24 h, 50 µM [1, 6] [%] | viability at 24 h, 100 µM [1, 6] [%] | CC50 at 24 h [1] [µM] | Cell viability (%) ([2]; 3.0625 μM) | Cell viability (%) ([2]; 6.125 μM) | Cell viability (%) ([2]; 12.5 μM) | Cell viability (%) ([2]; 25 μM) | Cell viability (%) ([2]; 50 μM) | Cell viability (%) ([2]; 100 μM) | cytotoxicity, result in words [2] | viability at 24 h, 3.0625 µM [3] [%] | viability at 24 h, 6.125 µM [3] [%] | viability at 24 h, 12.5 µM [3] [%] | viability at 24 h, 25 µM [3] [%] | viability at 24 h, 50 µM [3] [%] | viability at 24 h, 100 µM [3] [%] | also measured
1 | CC(C)C[C@H](NC(=O)[C@H](Cc1c[nH]c2ccccc12)NC(=O)CNC(=O)[C@H](CCCCN)NC(=O)[C@H](CCC(=O)O)NC(=O)[C@H](CCCCN)NC(=O)[C@H](CS)NC(=O)[C@H](Cc1ccc(O)cc1)NC(=O)[C@H](CCC(=O)O)NC(=O)[C@H](CCCNC(=N)N)NC(=O)[C@@H](NC(=O)[C@H](C)NC(=O)[C@H](CCC(=O)O)NC(=O)CNC(=O)[C@H](CO)NC(=O)CNC(=O)[C@H](CCCNC(=N)N)NC(=O)[C@H](CCCNC(=N)N)NC(=O)[C@H](CCCNC(=N)N)NC(=O)[C@H](CCC(N)=O)NC(=O)[C@H](CCCNC(=N)N)NC(=O)[C@H](CCCNC(=N)N)NC(=O)[C@H](CCCCN)NC(=O)[C@H](CCCCN)NC(=O)[C@H](CCCNC(=N)N)NC(=O)CNC(=O)[C@@H](N)Cc1ccc(O)cc1)C(C)C)C(=O)N[C@H](C(=O)N1CCC[C@H]1C(=O)O)C(C)C [BP15] | 91 | 104 | 96.7 | 96.7 | 107 | 96.3 | > 100 | 85.77% and 91.09% | 105.7678% and 97.72% | 98.76% and 95.25% | 92.912% and 95.05% | 103.6251% and 100.2489% | 99.4048% and 104.9237% | not toxic to cells within 100 μM | 108 | 125 | 122 | 116 | 112 | 75.8 | viability at 24 h, 200 µM [3]: 20%; Cell viability (%) ([4]; 3.0625 μM): 105.9733% and 109.128%; Cell viability (%) ([4]; 6.125 μM): 127.0907% and 124.0647%; Cell viability (%) ([4]; 12.5 μM): 120.3949% and 122.777%; Cell viability (%) ([4]; 25 μM): 111.0595% and 118.2059%; Cell viability (%) ([4]; 50 μM): 109.4499% and 102.9473%; Cell viability (%) ([4]; 100 μM): 87.11% and 76.81%; Cell viability (%) ([4]; 200 μM): 13.65% and 13.13% and 13.4559%; cytotoxicity, result in words [4]: not toxic to cells within 100 μM; IC50 [5]: 6.76 µM
2 | YGRKKRRQRRRGSGEAVREYCKEK [BP10] | 97.7 | 98.5 | 94.8 | 109 | 109 | 107 | > 200 | 98.99% and 103.5309% | 93.25% and 92.62% | 97.35% and 100.8827% | 99.56% and 96.2169% | 115.4477% and 116.3934% | 112.232% and 114.3758% | not toxic to cells within 200 μM | 107 | 119 | 122 | 117 | 109 | 92.8 | viability at 24 h, 200 µM ([1]; RD cells, 200 μM, 24 h, CCK-8 4 h (Example 18), read-out: Cell viability (%)): 79.7%; Cell viability (%) ([2]; 200 μM): 85.18% and 97.54%; viability at 24 h, 200 µM [3]: 83.1%; Cell viability (%) ([4]; 3.0625 μM): 106.2952% and 107.1965%; Cell viability (%) ([4]; 6.125 μM): 119.236% and 118.9785%; Cell viability (%) ([4]; 12.5 μM): 120.8456% and 123.9359%; Cell viability (%) ([4]; 25 μM): 117.3689% and 116.0169%; Cell viability (%) ([4]; 50 μM): 118.399% and 120.0086%; Cell viability (%) ([4]; 100 μM): 92.32% and 94.06%; Cell viability (%) ([4]; 200 μM): 86.72% and 82.22%; cytotoxicity, result in words [4]: not toxic to cells within 200 μM; IC50 [5]: 1.33 µM
